Data as given in PMC7187627 (Antimicrobial Agents and Chemotherapy, 2019).
Several values for one entry are separate records, joined by “and”; a condition that tells them apart may be missing. Equal values may be shown once.

Tests used:
[1] = Fecal (stool) pharmacokinetics, multiple-ascending-dose phase 1 study; format: in vivo, human; details: for Cstool,ss (concentration in stool) / fe,stool (fe,feces,ss, fraction of dose excreted unchanged in feces over 24 h): day 10, median (minimum, maximum); for fe,stool (fe,feces,ss, fraction of dose excreted unchanged in feces over 24 h): % in Table S4
Experimental: PK method development, validation, and sample testing for plasma, feces, and urine were performed at KCAS, LLC (Shawnee, KS). Plasma, urine, and fecal concentrations of CRS3123 were determined by means of validated, sensitive, and specific high-performance liquid chromatography/tandem mass spectrometric (HPLC-MS/MS) assays. The lower limits of quantification of CRS3123 in plasma, feces, and urine were 10.0 ng/ml, 60.0 ng/g, and 100.0 ng/ml, respectively. The validated urine PK assay measured total free CSR3123. Since the majority of urinary CRS3123 was excreted as glucuronide conjugates ([32]), an enzymatic cleavage step using glucuronidase was added to the process to convert the glucuronide conjugates to free CRS3123 for the urine analysis.
A selective, accurate, and reproducible analytical method using LC-MS/MS for the quantitation of CRS3123 in human fecal homogenate was linear over a range of 10.0 to 2000 ng/ml (fecal homogenate) or 60.0 to 12,000 ng/g (fecal material). Since 11 fecal samples collected on day 10 exceeded the upper limit, this method was amended by validating it for an extended range of 50.0 to 3,000 μg/ml (fecal homogenate) or […] (fecal material).
(iii) Fecal PK. Twenty-four-hour fecal collection was initiated for all subjects following dose 1 and dose 19 of study drug for measurement of CRS3123 concentrations in feces. A listing of individual PK fecal sample collection start and stop dates/times, fecal weight excreted for each planned collection, CRS3123 concentration in each fecal collection, and amount of CRS3123 excreted in each fecal collection was provided for each fecal collection for each treatment. The bioanalytical method was amended to allow for reanalysis of samples originally outside the linear range.
The following parameters were calculated from the fecal data: amount of unchanged drug excreted in feces (in nanograms) following doses 1 and 2 (Ae,feces) or doses 19 and 20 (Ae,feces,ss) calculated as fecal concentration × fecal weight (in the case of multiple fecal samples, Ae,feces and Ae,feces,ss were determined as the sum of the amount calculated in each fecal sample collected during the 24-h collection period), and fraction of dose excreted unchanged in feces (fe,feces,ss) over a 24-h interval after multiple dosing (expressed as a percentage), calculated as Ae,feces,ss divided by dose 19 plus dose 20.
Due to the 12-h dosing interval utilized in this study, fe,feces,ss was calculated only after multiple dosing on day 10, when CRS3123 would be expected to be at or near steady state. […] A subject listing of individual fecal PK parameters for each treatment was provided for day 1 and for day 10.

[2] = tested on: type 1 methionyl-tRNA synthetase (MetRS); set-up: method as in PMID 19258353, PMID 19251726; details: cited from earlier work
C. difficile = tested on: C. difficile; set-up: method as in PMID 19258353, PMID 19251726; details: cited from earlier work

For `O=c1cc(NCCCN[C@@H]2CCOc3c(Br)cc(Br)cc32)[nH]c2ccsc12` [CRS3123], which “Cstool,ss (concentration in stool)” value ([1]; 200 mg Q12h oral) is on record?
The value was 2,115 μg/g and 2,115 (966, 4,430) μg/g.

And the “fe,stool (fe,feces,ss, fraction of dose excreted unchanged in feces over 24 h)” value ([1]; 200 mg Q12h oral)?
The value was 24.9% and 24.9 (1.9, 68.8) %.

What about the “Cstool,ss (concentration in stool)” value ([1]; 400 mg Q12h oral) of the same molecule?
The value was 5,390 μg/g and 5,390 (2,920, 8,700) μg/g.

What about the “fe,stool (fe,feces,ss, fraction of dose excreted unchanged in feces over 24 h)” value ([1]; 400 mg Q12h oral) of the same molecule?
The value was 52.0%.

And the “Cstool,ss (concentration in stool)” value ([1]; 600 mg Q12h oral)?
Its value is 8,280 μg/g and 8,280 (2,200, 14,000) μg/g.

And the “fe,stool (fe,feces,ss, fraction of dose excreted unchanged in feces over 24 h)” value ([1]; 600 mg Q12h oral)?
The value was 43.1% and 43.1 (11.0, 125.8) %.

What about the concentrations in feces ([1]; all three doses tested) of the same molecule?
Its concentrations in feces is “above 1,000 μg/g”.

What about the “fecal concentrations relative to MIC90” value ([1]; human, in vivo) of the same molecule?
The value was “substantially above the MIC90 value”.

And the “inhibition of type 1 MetRS” value [2]?
Its value is “potently inhibits”.

And the “C. difficile toxin production and sporulation” value (C. difficile)?
Its value is “inhibits”.
